# Columns and labels:
# [1] = tested on: men suffering from round cell idiopathic syndrome; conditions: 15 mg per day during 3 months; men with round cell idiopathic syndrome; cited from earlier work
# [2] = tested on: fertile men and subfertile men; experiment: Spermcount after oral administration of folic acid, zinc or both, versus initial spermcount; type: in vivo; design: key to Percentage improvement of spermcount after administration of active agents, compared to initial spermcount: 0 means about neutral; The number of + signs indicates activity; ++: The number of + signs indicates activity; +++: The number of + signs indicates activity; +++(+): The number of + signs indicates activity; conditions: for Percentage improvement of spermcount after administration of active agents, compared to initial spermcount: daily administration during 5 months (table head; text says three months)
# spermatozoa = conditions: 10 mg over 30 days; cited from earlier work
# [3] = tested on: males that suffer from idopathic oligospermia; conditions: 220 mg zinc sulphate; idiopathic oligospermia; cited from earlier work
# fowl seminal plasma = conditions: zinc concentration above 3 μg per ml storage medium; cited from earlier work
Compound,spermatozoa number and fertility [1],"Percentage improvement of spermcount after administration of active agents, compared to initial spermcount ([2]; fertile men)","sperm count ([2]; folate alone, especially subfertile men)","Percentage improvement of spermcount after administration of active agents, compared to initial spermcount ([2]; subfertile men)",sperm counts and motility and DNA content of spermatozoa (spermatozoa),"sperm counts ([2]; both groups, so also in fertile men)",sperm and number of spermatozoa having normal morfology and motility [3],fertility of fowl seminal plasma (fowl seminal plasma)
Nc1nc(=O)c2c([nH]1)NCC(CNc1ccc(C(=O)N[C@@H](CCC(=O)O)C(=O)O)cc1)N2C=O (mixture of isomers) [folinic acid],increases spermatozoa number and fertility,,,,,,,
"Nc1nc2ncc(CNc3ccc(C(=O)N[C@@H](CCC(=O)O)C(=O)O)cc3)nc2c(=O)[nH]1 [5 mg folate, folic acid]",,0,increases sperm count,+++,did not result in an increase,,,
"O=S(=O)([O-])[O-].[Zn+2] [15 mg zinc, zinc sulphate]",,+,,++,,increases sperm counts in both groups,improved significantly,reduced the fertility

# Source: patent publication US6576634B1, “Pharmaceutical or dietetic preparation for improvement of fertility and sperm quality” (N.V. Nutricia, priority 2000, dated 2003)
